Laboratory results reported in ChEMBL document CHEMBL6109101, “Synthesis and bioactivity of cyclic peptide GG-8-6 analogues as anti-hepatocellular carcinoma agents” (Eur J Med Chem, 2025).
Active and inactive are the calls of the source. The rule behind the calls is not given here.

Assays:
Format in all cases: functional, cell-based
HepG2 = experiment: Cytotoxicity against human HepG2 cells assessed as inhibition of cell proliferation incubated for 48 hrs by MTT assay; settings: HepG2, 48 h
Huh-7 = experiment: Cytotoxicity against human Huh-7 cells assessed as inhibition of cell proliferation incubated for 48 hrs by MTT assay; settings: Huh-7, 48 h
MHCC97H [1] = experiment: Cytotoxicity against human MHCC97H cells assessed as inhibition of cell proliferation incubated for 48 hrs by MTT assay
HCCLM3 [2] = experiment: Cytotoxicity against human HCCLM3 cells assessed as inhibition of cell proliferation incubated for 48 hrs by MTT assay; settings: HCCLM3, 48 h
MHCC97H [3] = experiment: Cytotoxicity against human MHCC97H cells assessed as cell viability incubated at 12 to 48 hrs hrs by MTT assay; settings: dose <= 40.0 µM, time 12-48 hrs
MHCC97H [4] = experiment: Cytotoxicity against human MHCC97H cells assessed as cell viability up to 40 uM by MTT assay; settings: time 12-48 hrs
HCCLM3 [5] = experiment: Cytotoxicity against human HCCLM3 cells assessed as cell viability incubated at 12 to 48 hrs hrs by MTT assay; settings: dose <= 40.0 µM, time 12-48 hrs
HCCLM3 [6] = experiment: Cytotoxicity against human HCCLM3 cells assessed as cell viability up to 40 uM by MTT assay; settings: time 12-48 hrs
HCCLM3 [7] = experiment: Cytotoxicity against human HCCLM3 cells assessed as cell viability up to 40 uM measured at 12 hrs by MTT assay
MHCC97H [8] = experiment: Cytotoxicity against human MHCC97H cells assessed as cell viability up to 40 uM measured at 12 hrs by MTT assay
HCCLM3 [9] = experiment: Cytotoxicity against human HCCLM3 cells assessed as cell viability up to 40 uM measured at 24 to 48 hrs by MTT assay; settings: time 24-48 hrs
MHCC97H [10] = experiment: Cytotoxicity against human MHCC97H cells assessed as cell viability up to 40 uM measured at 24 to 48 hrs by MTT assay; settings: time 24-48 hrs
HCCLM3 [11] = experiment: Cytotoxicity against human HCCLM3 cells assessed as reduction in cell viability up to 40 uM measured at 48 hrs by MTT assay
MHCC97H [12] = experiment: Cytotoxicity against human MHCC97H cells assessed as reduction in cell viability up to 40 uM measured at 48 hrs by MTT assay
HCCLM3 [13] = experiment: Cytotoxicity against human HCCLM3 cells assessed as reduction in cell viability at 40 uM measured at 48 hrs by MTT assay
MHCC97H [14] = experiment: Cytotoxicity against human MHCC97H cells assessed as reduction in cell viability at 40 uM measured at 48 hrs by MTT assay
HCCLM3 [15] = experiment: Cytotoxicity against human HCCLM3 cells assessed as reduction in cell viability at 40 uM measured after 48 hrs by MTT assay
MHCC97H [16] = experiment: Cytotoxicity against human MHCC97H cells assessed as reduction in cell viability at 40 uM measured after 48 hrs by MTT assay

Compound	IC50 (HepG2)	IC50 (Huh-7)	IC50 (MHCC97H [1])	IC50 (HCCLM3 [2])	further results
CC(C)C[C@@H]1NC(=O)[C@H](CC(C)C)NC(=O)[C@@H](CCCCNC(=O)OC(C)(C)C)NC(=O)[C@@H]2CCCN2C(=O)[C@@H](CC(C)C)NC(=O)[C@H](Cc2ccccc2)NC(=O)[C@H](CC(C)C)NC(=O)[C@H](C(C)C)NC(=O)[C@H](CC(C)C)NC1=O	> 100 µM	> 100 µM	3.64 µM	5.23 µM	–
CC[C@@H](C)[C@H]1NC(=O)[C@@H]2CCCN2C(=O)[C@@H](CC(C)C)NC(=O)[C@H](Cc2ccc(OC(C)(C)C)cc2)NC(=O)[C@@H](CC(C)C)NC(=O)[C@H](C(C)C)NC(=O)[C@H](CC(C)C)NC(=O)[C@H](CC(C)C)NC(=O)[C@H](CC(C)C)NC1=O	2.08 µM	2.08 µM	4.86 µM	2.86 µM	–
CC[C@@H](C)[C@H]1NC(=O)[C@@H]2CCCN2C(=O)[C@@H](CC(C)C)NC(=O)[C@@H](Cc2ccccc2)NC(=O)[C@H](CC(C)C)NC(=O)[C@H](C(C)C)NC(=O)[C@H](CC(C)C)NC(=O)[C@H](CC(C)C)NC(=O)[C@H](CC(C)C)NC1=O	> 100 µM	> 100 µM	> 100 µM	> 100 µM	–
CC[C@@H](C)[C@H]1NC(=O)[C@@H]2CCCN2C(=O)[C@@H](CC(C)C)NC(=O)CNC(=O)[C@H](CC(C)C)NC(=O)[C@H](C(C)C)NC(=O)[C@H](CC(C)C)NC(=O)[C@H](CC(C)C)NC(=O)[C@H](CC(C)C)NC1=O	> 100 µM	> 100 µM	> 100 µM	> 100 µM	–
CC[C@@H](C)[C@H]1NC(=O)[C@@H]2CCCN2C(=O)[C@@H](CC(C)C)NC(=O)[C@@H]([C@@H](C)OC(C)(C)C)NC(=O)[C@@H](CCCCNC(=O)OC(C)(C)C)NC(=O)[C@H](C(C)C)NC(=O)[C@H](CC(C)C)NC(=O)[C@H](CC(C)C)NC(=O)[C@H](CC(C)C)NC1=O	> 100 µM	> 100 µM	9.19 µM	6.57 µM	Activity (MHCC97H [3]): Dose-dependent-effect; Activity (MHCC97H [4]): Time-dependent-effect; Activity (HCCLM3 [5]): Dose-dependent-effect; Activity (HCCLM3 [6]): Time-dependent-effect; Activity (HCCLM3 [7]): Active; Activity (MHCC97H [8]): Active; Activity (HCCLM3 [9]): Active; Activity (MHCC97H [10]): Active; Activity (HCCLM3 [11]): Active; Activity (MHCC97H [12]): Active; Activity (HCCLM3 [13]): Active; Activity (MHCC97H [14]): Active; Activity (HCCLM3 [15]): Active; Activity (MHCC97H [16]): Active
CC[C@@H](C)[C@H]1NC(=O)[C@@H]2CCCN2C(=O)[C@@H](CC(C)C)NC(=O)[C@@H](Cc2ccc(OC(C)(C)C)cc2)NC(=O)[C@H](CC(C)C)NC(=O)[C@H](C(C)C)NC(=O)[C@H](CC(C)C)NC(=O)[C@H](CC(C)C)NC(=O)[C@H](CC(C)C)NC1=O	> 100 µM	> 100 µM	> 100 µM	> 100 µM	–
CC[C@@H](C)[C@H]1NC(=O)[C@@H]2CCCN2C(=O)[C@@H](CC(C)C)NC(=O)[C@@H](COC(C)(C)C)NC(=O)[C@H](CC(C)C)NC(=O)[C@H](C(C)C)NC(=O)[C@H](CC(C)C)NC(=O)[C@H](CC(C)C)NC(=O)[C@H](CC(C)C)NC1=O	> 100 µM	> 100 µM	> 100 µM	> 100 µM	–
CC[C@@H](C)[C@H]1NC(=O)[C@@H]2CCCN2C(=O)[C@@H](CC(C)C)NC(=O)[C@H](COC(C)(C)C)NC(=O)[C@@H](CCCCNC(=O)OC(C)(C)C)NC(=O)[C@H](C(C)C)NC(=O)[C@H](CC(C)C)NC(=O)[C@H](CC(C)C)NC(=O)[C@H](CC(C)C)NC1=O	> 100 µM	> 100 µM	3.04 µM	2.99 µM	–
CC(C)C[C@@H]1NC(=O)[C@H](CC(C)C)NC(=O)[C@@H](CCCCNC(=O)OC(C)(C)C)NC(=O)[C@@H]2CCCN2C(=O)[C@@H](CC(C)C)NC(=O)[C@H](Cc2ccc(OC(C)(C)C)cc2)NC(=O)[C@H](CC(C)C)NC(=O)[C@H](C(C)C)NC(=O)[C@H](CC(C)C)NC1=O	> 100 µM	> 100 µM	3.51 µM	3.26 µM	Activity (MHCC97H [3]): Dose-dependent-effect; Activity (MHCC97H [4]): Time-dependent-effect; Activity (HCCLM3 [5]): Dose-dependent-effect; Activity (HCCLM3 [6]): Time-dependent-effect; Activity (HCCLM3 [7]): Active; Activity (MHCC97H [8]): Active; Activity (HCCLM3 [9]): Active; Activity (MHCC97H [10]): Active; Activity (HCCLM3 [11]): Active; Activity (MHCC97H [12]): Active; Activity (HCCLM3 [13]): Active; Activity (MHCC97H [14]): Active; Activity (HCCLM3 [15]): Active; Activity (MHCC97H [16]): Active
CC(C)C[C@@H]1NC(=O)[C@H](CC(C)C)NC(=O)[C@@H](CCCCNC(=O)OC(C)(C)C)NC(=O)[C@@H]2CCCN2C(=O)[C@@H](CC(C)C)NC(=O)[C@H](C(C)C)NC(=O)[C@H](CC(C)C)NC(=O)[C@H](C(C)C)NC(=O)[C@H](CC(C)C)NC1=O	> 100 µM	> 100 µM	2.7 µM	2.17 µM	–
CC[C@@H](C)[C@H]1NC(=O)[C@@H]2CCCN2C(=O)[C@@H](CC(C)C)NC(=O)[C@H]([C@H](C)OC(C)(C)C)NC(=O)[C@@H](CC(C)C)NC(=O)[C@H](C(C)C)NC(=O)[C@H](CC(C)C)NC(=O)[C@H](CC(C)C)NC(=O)[C@H](CC(C)C)NC1=O	3.41 µM	3.41 µM	6.05 µM	4.19 µM	–
CC[C@@H](C)[C@H]1NC(=O)[C@@H]2CCCN2C(=O)[C@@H](CC(C)C)NC(=O)[C@@H]([C@@H](C)OC(C)(C)C)NC(=O)[C@H](CC(C)C)NC(=O)[C@H](C(C)C)NC(=O)[C@H](CC(C)C)NC(=O)[C@H](CC(C)C)NC(=O)[C@H](CC(C)C)NC1=O	> 100 µM	> 100 µM	> 100 µM	> 100 µM	–
CC[C@@H](C)[C@H]1NC(=O)[C@@H]2CCCN2C(=O)[C@@H](CC(C)C)NC(=O)[C@H](C(C)C)NC(=O)[C@@H](CC(C)C)NC(=O)[C@H](C(C)C)NC(=O)[C@H](CC(C)C)NC(=O)[C@H](CC(C)C)NC(=O)[C@H](CC(C)C)NC1=O	12.2 µM	12.2 µM	8.18 µM	9.94 µM	–
CC[C@@H](C)[C@H]1NC(=O)[C@@H]2CCCN2C(=O)[C@@H](CC(C)C)NC(=O)[C@H](CCCCNC(=O)OC(C)(C)C)NC(=O)[C@@H](CC(C)C)NC(=O)[C@H](C(C)C)NC(=O)[C@H](CC(C)C)NC(=O)[C@H](CC(C)C)NC(=O)[C@H](CC(C)C)NC1=O	> 100 µM	> 100 µM	> 100 µM	> 100 µM	–
CC(C)C[C@@H]1NC(=O)[C@H](CC(C)C)NC(=O)[C@@H](CCCCNC(=O)OC(C)(C)C)NC(=O)[C@@H]2CCCN2C(=O)[C@@H](CC(C)C)NC(=O)[C@H](COC(C)(C)C)NC(=O)[C@H](CC(C)C)NC(=O)[C@H](C(C)C)NC(=O)[C@H](CC(C)C)NC1=O	> 100 µM	> 100 µM	10.2 µM	10.2 µM	–
